Laboratory results from US6656921B1, “Use of zinc hyaluronate against peptic ulcer” (Richter Gedeon Vegyeszeti Gyar RT., priority 1997, dated 2003).
Marks after values point to notes of the source that are not given here.

Assays:
Format in all cases: in vivo, rat
[1] = tested on: acidified ethanol induced gastric lesion; assay: Inhibition of acidified-ethanol induced gastric lesions
Procedure: Female RG-Wistar rats weighing between 120-150 g were used. Before experiments animals were fasted for 24 hours but received water ad libitum.
Experiments were carried out according to the technique similar to that described by A. Robert [Gastroenterology 77, […] (1979)].
Acidified ethanol (mixture of 50 ml of abs. ethanol and 1 ml of concentrated HCI) was used as strong irritants. Dose of acidified ethanol was 0.5 ml/100 g body weight with intragastric administration. Test compounds were given orally 30 minutes before the acidified ethanol challenge. When the duration of action of test compound was studied test material was administered 60 or 120 minutes earlier to the irritating effect induced by acidified-ethanol effect. One hour after the acidified ethanol treatment rats were sacrificed by cervical dislocation. Stomachs were removed and opened along the greater curvature and mildly washed down. The longitudinal hemorrhagic lesions were assayed by length.
ED50 value was defined as the dose that gave a 50% decrease in ulcer index.

[2] = tested on: acidified ethanol induced gastric damage; assay: Effect of L-NAME (endogenous NO) on protection against acidified-ethanol induced gastric damage
Procedure: To study the mechanism of action of the compound to be tested, the involvement of endogenous NO in the development of acidified-ethanol induced gastric damage was also studied by intraperitoneal administration of L-N^G-nitroarginine methyl ester (L-NAME). L-NAME at a dose of 25 mg/kg was injected 15 minutes before the test compound. In subsequent experiments the test compound (p.o.), L-NAME (25 mg/kg i.p.), L-arginine (400 mg/kg i.v.) were administered 30, 45 or 60 minutes before oral administration of acidified-ethanol.
The connection between the cytoprotective effect of zinc hyaluronate and endogenic NO was studied by using an inhibitor of the nitrogen(II) oxide biosynthesis namely, N^G-nitro-L-arginine methyl ester (L-NAME). Considering that zinc hyaluronate(II) and zinc hyaluronate(M) had shown the same activity in acidified ethanol test, the latter was the only one tested in this experiment.

[3] = tested on: indomethacin induced gastric lesion; assay: Inhibition of indomethacin induced gastric lesion; conditions: for Inhibition: 30 min before indomethacin; for Lesion number/stomach ± S.E.M.: 30 min before indomethacin 40 mg/kg s.c.
Procedure: 2. Inhibition of Indomethacin Induced Gastric Lesion Female RG Wistar rats weighing between 120-150 g were used. Before the experiments animals were fasted for 24 hours but received water ad libitum. Test compounds were given orally, 30 minutes later the animals were treated subcutaneously with indomethacin at a dose of 40 mg/kg. Four hours after the irritating indomethacin administration the animals were killed by cervical dislocation. The stomachs were removed, opened along the greater curvature and the hemorrhagic lesions were counted on the glandular stomach.
ED50 value represents the dose which protects the stomach by 50 % from the damaging effect of indomethacin.

[4] = tested on: stress-induced gastric lesion; assay: Inhibition of stress (cold-restraint) induced gastric lesions; conditions: for Lesion score/stomach ± S.E.M.: 30 min before cold-restraint stress, score 0-3; for Inhibition: 30 min before stress
Procedure: Female RG Wistar rats weighing between 120-150 g were used. Before the experiments animals were fasted for 24 hours but received water ad libitum. Experiments were carried out according to the technique similar to that described by Senay et al., (1967). [Proc. Soc. Exp. Biol. Med.124,1221, (1967)].
Test compounds were given orally. 30 minutes later the animals were immobilized in plastic restraint boxes then placed into a refrigerator at 4° C.-8° C. temperature. Four hours later the animals were removed from both the refrigerator and the restraint boxes and one hour later they were sacrificed by cervical dislocation. The stomachs were removed, opened along the greater curvature and hemorrhagic lesions were scored by a zero to 3 scale: stomachs free from any damage were given a score of 0, stomachs with only a few hemorrhagic lesion were given a score of 1, stomachs with more lesion numbers than 10 were given a score of 2, and stomachs with a lot of lesions were characterized with a score of 3.
The ED50 were defined as the dose needed to decrease the score of gastric lesions by 50%.

[5] = tested on: platelet activating factor (PAF) induced gastric lesion; assay: Inhibition of gastric damage induced by platelet activating factor (PAF); conditions: for Inhibition: 30 min before PAF; for Lesion score/stomach ± S.E.M.: 30 min before PAF infusion, score 0-3
Procedure: Male, RG-Wistar rats weighing between 200-250 g were used. Before the experiments animals were fasted for 24 hours but received water ad libitum. Experiments were carried out according to the technique similar to that described by Wallace and Whittle (1986). [Br.J.Pharmac., 89,415, (1986)]. Animals were anaesthetized by intraperitoneal administration of urethane at a dose of 1 g/kg in a volume of 10 ml/kg. Femoral vein was then prepared and cannulated for administration of ulcerogenic PAF. After the surgery PAF was infused intravenously at a rate of 0.1 ml/min for ten minutes at a dose of 200 ng/kg/min. Test compounds were given 30 minutes before the PAF challenge. One hour after the infusion of PAF animals were sacrificed by cervical dislocation; their stomachs were removed and opened along the greater curvature. The hemorrhagic erosions were evaluated by a zero to three scoring system.

[6] = 10 mg/kg p.o., 30 min before acidified ethanol
[7] = 25 mg/kg p.o., 30 min before acidified ethanol
[8] = 25 mg/kg p.o., pretreatment time 60 minutes
[9] = 25 mg/kg p.o., pretreatment time 120 minutes
[10] = 50 mg/kg p.o., 30 min before acidified ethanol
[11] = 50 mg/kg p.o., pretreatment time 60 minutes
[12] = 50 mg/kg p.o., pretreatment time 120 minutes
[13] = 100 mg/kg p.o., 30 min before acidified ethanol
[14] = 100 mg/kg p.o., pretreatment time 60 minutes
[15] = 100 mg/kg p.o., pretreatment time 120 minutes
[16] = D-Arg + L-NAME + ZH/M, 400 + 25 + 50 mg/kg
[17] = L-Arg + L-NAME + ZH/M, 400 + 25 + 50 mg/kg

## zinc hyaluronate [Zinc hyaluronate (M)]
[1]; [6]
  Inhibition: 47.7%
  Lesion length/stomach mm ± S.E.M.: 57.9 ± 8.2 mm
[1]; [7]
  Inhibition: 69.9%
  Lesion length/stomach mm ± S.E.M.: 33.3 ± 7.7 mm
[1]; [8]
  Inhibition: 28.7%
  Lesion length/stomach mm ± S.E.M.: 49.7 ± 5.9 mm
[1]; [9]
  Inhibition: 12.2%
  Lesion length/stomach mm ± S.E.M.: 53.2 ± 7.7 mm
[1]; [10]
  Inhibition: 88.3%
  Lesion length/stomach mm ± S.E.M.: 13.0 ± 3.0 mm
[1]; [11]
  Inhibition: 45.6%
  Lesion length/stomach mm ± S.E.M.: 37.9 ± 12.2 mm
[1]; [12]
  Inhibition: 45.9%
  Lesion length/stomach mm ± S.E.M.: 32.8 ± 7.5 mm
[1]; [13]
  Inhibition: 97.6%
  Lesion length/stomach mm ± S.E.M.: 2.7 ± 1.4 mm
[1]; [14]
  Inhibition: 93.4%
  Lesion length/stomach mm ± S.E.M.: 4.6 ± 1.7 mm
[1]; [15]
  Inhibition: 83.0%
  Lesion length/stomach mm ± S.E.M.: 10.3 ± 4.6 mm
[1]; p.o., 30 min pretreatment
  ED50 (dose giving 50% decrease in ulcer index): 10.4 mg/kg
[2]; [16]
  Inhibition (compared with the vehicle + vehicle group): 48.4%
  Lesion length/stomach mm ± S.E.M.: 31.2 ± 3.5*d mm
[2]; [17]
  Inhibition (compared with the vehicle + vehicle group): 60.2%
  Lesion length/stomach mm ± S.E.M.: 24.1 ± 4.4*c mm
[2]; L-NAME 25 mg/kg
  Effect of L-NAME pretreatment on the gastroprotective activity (in words): considerably reduced
[2]; L-NAME + ZH/M, 25 + 50 mg/kg
  Inhibition (compared with the vehicle + vehicle group): 31.9%
  Lesion length/stomach mm ± S.E.M.: 41.2 ± 4.6*b mm
[2]; Vehicle + ZH/M, 0 + 50 mg/kg
  Inhibition (compared with the vehicle + vehicle group): 69.6%
  Lesion length/stomach mm ± S.E.M.: 18.4 ± 2.3 mm
[3]; 1.0 mg/kg p.o.
  Inhibition: 15.7%
  Lesion number/stomach ± S.E.M.: 15.6 ± 6.2
[3]; 10.0 mg/kg p.o.
  Inhibition: 68.1%
  Lesion number/stomach ± S.E.M.: 5.9 ± 1.9
[3]; 100 mg/kg p.o.
  Inhibition: 89.2%
  Lesion number/stomach ± S.E.M.: 2.0 ± 0.9
[3]; p.o.
  ED50 (dose protecting the stomach by 50% from indomethacin): 6.2 mg/kg
[4]; 25 mg/kg p.o.
  Lesion score/stomach ± S.E.M.: 1.0 ± 0.3
  Inhibition: 41.2%
[4]; 50 mg/kg p.o.
  Lesion score/stomach ± S.E.M.: 0.4 ± 0.2
  Inhibition: 76.5%
[4]; 100 mg/kg p.o.
  Lesion score/stomach ± S.E.M.: 0*
  Inhibition: 100%
[4]; oral administration
  ED50 (dose decreasing score of gastric lesions by 50%): 29.4 mg/kg
[5]; 50 mg/kg p.o.
  Inhibition: 27.3%
  Lesion score/stomach ± S.E.M.: 1.6 ± 0.4
[5]; 100 mg/kg p.o.
  Inhibition: 40.9%
  Lesion score/stomach ± S.E.M.: 1.3 ± 0.2
[5]; rat, in vivo
  Protection against ulcerogenic effect of PAF (in words): strongly reduced the ulcerogenic effect of PAF
